Tests used:
[1] = tested on: isolated rat soleus muscles; assay: Measurement of force in an in vitro model: recovery of nerve-stimulated contractile force of isolated soleus nerve-muscle preparations after tubocurarine; details: for Point increase (%): percentage of the initial force restored, 50 µM test compound, after 40 mins of compound exposure, in continued presence of 115 nM tubocurarine (90 mins pre-incubation), 30°C
Excerpt: • The terms "C1-3 alkyl" and "C1-5 alkyl" refers to a branched or unbranched alkyl group having from […] carbon atoms respectively, including but not limited to methyl, ethyl, prop-1-yl, prop-2-yl, 2-methyl-prop-1-yl, 2-methyl-prop-2-yl, 2,2-dimethyl-prop-1-yl, but-1-yl, but-2-yl, 3-methyl-but-1-yl, 3-methyl-but-2-yl, pent-1-yl, pent-2-yl and pent-3-yl. • The term "C3-5 cycloalkyl" and "C3-6 cycloalkyl" refers to a group having three to five or three to six carbon atoms respectively including a monocyclic or bicyclic carbocycle, including but not limited to cyclopropyl, cyclobutyl, cyclopentyl and cyclohexyl. • The term "C2-5 alkenyl" refers to a branched or unbranched alkenyl group having from two to five carbon atoms, two of which are connected by a double bond, including but not limited to ethenyl, propenyl, isopropenyl, butenyl, isobutenyl, pentenyl and isopentenyl. • The term "C2-5 alkynyl" refers to a branched or unbranched alkynyl group having from […] carbon atoms, two of which are connected by a triple bond, including but not limited to ethynyl, prop-1-ynyl, prop-2-ynyl, but-1-ynyl, but-2-ynyl, but-3-ynyl, buta-1,3-diynyl, pent-1-ynyl, pent-2-ynyl, pent-3-ynyl, pent-4-ynyl, penta-2,4-diynyl and penta-1,3-diynyl. • The term "5 membered aromatic heterocycle" refers to an aromatic group having five carbon atoms wherein between 1 and 3 carbon atoms in the ring have been replaced with a heteroatom selected from the group comprising nitrogen, sulphur and oxygen. Binding to the heterocycle may be at the position of the heteroatom or via a carbon atom of the heterocycle. […] The term "plasma half-life" is the time that it takes the compound to lose one-half of its pharmacologic activity in the blood plasma. • The term "treatment" refers to the combating of a disease or disorder. "Treatment" or "treating," as used herein, includes any desirable effect on the symptoms or pathology of a disease or condition as described herein, and may include even minimal changes or improvements in one or more measurable markers of the disease or condition being treated. […] In some embodiments, the term "treatment" encompasses amelioration and prevention. • The term "amelioration" refers to moderation in the severity of the symptoms of a disease or condition. Improvement in a patient's condition, or the activity of making an effort to correct, or at least make more acceptable, conditions that are difficult to endure related to patient's conditions is considered "ameliorative" treatment. • The term "prevent" or "preventing" refers to precluding, averting, obviating, forestalling, stopping, or hindering something from happening, especially by advance action. • The term "reversal" or "reversing" refers to the ability of a compound to restore nerve-stimulated force in skeletal muscle exposed either ex vivo or in vivo to a non-depolarizing neuromuscular blocking agent or another pharmaceutical that is able to depress neuromuscular transmission • The term "non-depolarizing blockers" refers to pharmaceutical agents that antagonize the activation of acetylcholine receptors at the post-synaptic muscle fibre membrane by blocking the acetylcholine binding site on the receptor.
The current disclosure relates to compounds that inhibit CIC-1 ion channels and increase muscle excitability and thereby improve muscle function in clinical conditions where muscle activation is failing. Such conditions result in loss of contractile function of skeletal muscle, weakness and excessive fatigue. In this series of experiments the compounds were tested for their ability to restore contractile function of isolated rat muscle when the neuromuscular transmission had been compromised akin to neuromuscular disorders.
Experimentally, soleus muscles from 4-5 wk old rats were isolated with the motor nerve remaining attached. […]

human CIC-1 channels = biological target: T1, human CIC-1 channels (Homo sapiens, UniProt P35523); assay: Automated whole cell patch-clamp (Qpatch 16) on CHO cells expressing human CIC-1; assay type: cell-based; details: difference in half activation voltage between cell patches treated intracellularly with compound and control (vehicle) patches; positive shift reflects CIC-1 inhibition
T1 construct: host or cells: CHO (Chinese hamster ovary) cells, constitutive expression
T1 sequence (P35523 whole entry): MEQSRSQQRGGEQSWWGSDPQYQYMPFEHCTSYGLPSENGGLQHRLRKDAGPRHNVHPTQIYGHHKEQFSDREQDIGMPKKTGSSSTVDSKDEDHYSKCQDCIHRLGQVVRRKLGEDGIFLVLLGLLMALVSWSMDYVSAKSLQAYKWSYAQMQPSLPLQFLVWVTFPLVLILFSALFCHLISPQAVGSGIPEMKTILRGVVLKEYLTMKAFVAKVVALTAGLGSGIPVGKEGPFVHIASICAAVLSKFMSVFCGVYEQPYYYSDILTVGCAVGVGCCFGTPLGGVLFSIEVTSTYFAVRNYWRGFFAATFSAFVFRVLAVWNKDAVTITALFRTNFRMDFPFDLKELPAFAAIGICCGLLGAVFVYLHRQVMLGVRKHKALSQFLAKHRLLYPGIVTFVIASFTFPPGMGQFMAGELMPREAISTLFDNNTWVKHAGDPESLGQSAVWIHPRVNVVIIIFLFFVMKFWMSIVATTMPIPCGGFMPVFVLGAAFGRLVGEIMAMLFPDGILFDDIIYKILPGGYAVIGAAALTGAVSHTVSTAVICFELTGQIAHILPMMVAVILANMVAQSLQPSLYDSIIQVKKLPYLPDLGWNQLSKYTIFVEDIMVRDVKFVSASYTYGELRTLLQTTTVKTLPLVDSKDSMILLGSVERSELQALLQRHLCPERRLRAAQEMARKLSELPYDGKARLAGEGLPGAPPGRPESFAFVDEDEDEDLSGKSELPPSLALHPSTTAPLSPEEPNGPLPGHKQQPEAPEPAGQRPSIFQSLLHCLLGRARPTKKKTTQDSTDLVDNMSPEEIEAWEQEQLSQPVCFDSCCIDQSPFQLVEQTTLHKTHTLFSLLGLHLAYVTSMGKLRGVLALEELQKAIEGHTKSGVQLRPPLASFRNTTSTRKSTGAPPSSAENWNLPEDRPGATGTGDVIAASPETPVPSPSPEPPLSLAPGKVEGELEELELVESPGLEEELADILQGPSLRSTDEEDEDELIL
Procedure: Experiments were performed using an automated patch clamp system that allowed high throughput testing of whole cell patches together with both intracellular and extracellular addition of compound.
Automated whole cell patch clamp experiments were performed with the Qpatch 16 system (Sophion Bioscience, Ballerup, Denmark) at room temperature. Data acquisition and analysis were performed in the Qassay software (ver. 5.6, Odense).
To evoke CIC-1 currents in whole cell patches, the membrane potential was initially stepped from a holding potential of -30 mV to +60 mV for 100 ms and then to various test voltages (sweeps) ranging from +120 mV to -140 mV in steps of 20 mV for 300 ms. To obtain tail currents, the membrane potential was stepped to -100 mV after each test voltage for 300 ms and then relaxed to -30 mV for 2 sec between sweeps (Figure 2). I/V relationships for whole cell instant and steady state current amplitudes were obtained by plotting average current densities at the beginning and at the end of the 300 ms step against the membrane potential (Figure 3).
In order to determine the relative overall open probability (P0), the instantaneous tail currents were normalized to the maximal tail current obtained following the most positive voltage step and plotted against the test voltage. […]
To evaluate the compound effect on CIC-1, when applied directly to the intracellular side of the cell membrane, the half activation voltage, V1/2, was determined from whole cell patches with compound added to the intracellular solution and then compared to V1/2 determined from control cell patches with only vehicle added to the intracellular solution. Additionally, the effect of extracellular added compound was evaluated by determine V1/2 and steady state current amplitudes before and after exchanging the extracellular solution to contain compound.
The difference in half activation voltage of CIC-1 channels, ΔV1/2, was determined as the difference between the cell patches treated intracellularly with compound and control cells patches and is reported in Table 4 below. […]

ΔV1/2 (mV) (human CIC-1 channels)	SMILES	Point increase (%) [1] [%]	average force (AUC) relative to initial force ([1]; Figure 1: 50 µM compound added after 90 min incubation in tubocurarine, 3 muscles)
	O=C(O)[C@@H]1CCc2cc(Br)cc(-c3ccon3)c2O1 (single isomer, unassigned) [Compound A-13]	24	
	O=C(O)Cn1cc(-c2ccon2)c2cc(Cl)ccc21 [Compound A-4, 2-[5-chloro-3-(1,2-oxazol-3-yl)-1H-indol-1-yl]acetic acid]	12	
	O=C(O)Cn1cc(-c2ccon2)c2cc(Br)ccc21 [Compound A-12, 2-[5-bromo-3-(1,2-oxazol-3-yl)-1H-indol-1-yl]acetic acid]	13	
8.4	O=C(O)[C@@H]1CCCN1c1ccc(Br)cc1F [Compound A-14, (2S)-1-(4-bromo-2-fluorophenyl)pyrrolidine-2-carboxylic acid]	26	
	O=C(O)C1CCc2cc(Br)cc(-c3ccon3)c2O1 (stereo not drawn) [Compound A-15, 6-bromo-8-(1,2-oxazol-3-yl)-3,4-dihydro-2H-1-benzopyran-2-carboxylic acid]		recovered
27.9	O=C(O)Cn1ccc2cc(Br)ccc21 [Compound A-24, 2-(5-bromo-1H-indol-1-yl)acetic acid]	10	
5.5	CC(C(=O)O)n1ccc2cc(Br)ccc21 (stereo not drawn) [Compound A-25, 2-(5-bromo-1H-indol-1-yl)propanoic acid]		
